Legend:
PKC theta = molecular target: T1, PKC theta (Homo sapiens, UniProt Q04759); assay: PKC assay, fluorescence polarization (Example 2), PKC theta; format: biochemical; settings: 5 μM ATP
T1 construct: purchased Upstate Biotechnologies, Temecula, CA 14-444
Procedure: (§1) The inhibition of PKC activity was measured by monitoring the production of phosphorylated peptide by fluorescence polarization at different concentrations of the inhibitor. Reactions were carried out in 96-well plate format with a total volume of 20 μL containing 20 mM HEPES, pH 7.4, 5 mM MgCl2, 0.2 mM CaCl2, 1 mM DTT, 0.02% Brij-35, 0.1 mg/mL phosphatidylserine, 0.02 mg/mL dioleoyl-sn-glycerol and 5 μM each of ATP and the peptide substrate. Compounds were first diluted serially in DMSO and then transferred to a solution containing the above concentrations of HEPES, MgCl2, CaCl2, DTT, and Brij-35 to yield 5× compound solutions in 2% DMSO, which was then added to the reaction solution. Reactions were initiated by the addition of PKC at a typical concentration as described in Table VI, and then allowed to incubate at room temperature for 20 min. At the end of this time, a combination of quench (EDTA) and detection (peptide tracer and antibody) reagents was added using the protocol of Invitrogen P2748.

PKC epsilon = molecular target: T2, PKC epsilon (Homo sapiens, UniProt Q02156); assay: PKC assay, fluorescence polarization (Example 2), PKC epsilon; format: biochemical; settings: 5 μM ATP
T2 construct: purchased Upstate Biotechnologies, Temecula, CA 14-518
T2 sequence (Q02156 1-737): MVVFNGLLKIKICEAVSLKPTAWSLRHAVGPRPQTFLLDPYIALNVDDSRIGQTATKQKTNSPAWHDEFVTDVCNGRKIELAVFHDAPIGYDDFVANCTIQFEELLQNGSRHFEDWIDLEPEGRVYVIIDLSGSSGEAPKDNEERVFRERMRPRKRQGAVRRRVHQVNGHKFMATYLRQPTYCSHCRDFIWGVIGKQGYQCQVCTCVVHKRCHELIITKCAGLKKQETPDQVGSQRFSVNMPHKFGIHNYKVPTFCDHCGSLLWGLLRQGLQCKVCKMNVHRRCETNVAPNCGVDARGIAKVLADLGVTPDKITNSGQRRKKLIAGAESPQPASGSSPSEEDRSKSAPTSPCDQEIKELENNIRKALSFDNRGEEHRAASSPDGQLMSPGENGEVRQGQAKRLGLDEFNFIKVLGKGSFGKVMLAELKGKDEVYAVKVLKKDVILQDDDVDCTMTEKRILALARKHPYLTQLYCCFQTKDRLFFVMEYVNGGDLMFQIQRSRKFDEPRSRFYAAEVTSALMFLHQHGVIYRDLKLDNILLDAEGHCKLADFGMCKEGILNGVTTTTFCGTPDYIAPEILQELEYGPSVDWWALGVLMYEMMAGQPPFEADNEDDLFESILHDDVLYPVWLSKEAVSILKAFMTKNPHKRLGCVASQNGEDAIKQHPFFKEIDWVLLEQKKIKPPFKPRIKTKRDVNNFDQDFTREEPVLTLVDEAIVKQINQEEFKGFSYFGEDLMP
Procedure: as §1

Human primary T cells = assay: IL-2 ELISA, Human Primary T Cell, Anti-CD3+CD28+ (Example 3); format: cell-based; settings: Homo sapiens, T-cell, 24 h, anti-CD3+CD28 stimulation
How it was run: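 Human primary T cells, 100,000 per well, were pre-incubated with compound in Yssel's medium for 1 h at 37 °C. The counter-assay used 0.5 ng/ml PMA with 0.1 uM ionomycin final.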

T1 sequence (Q04759 whole entry): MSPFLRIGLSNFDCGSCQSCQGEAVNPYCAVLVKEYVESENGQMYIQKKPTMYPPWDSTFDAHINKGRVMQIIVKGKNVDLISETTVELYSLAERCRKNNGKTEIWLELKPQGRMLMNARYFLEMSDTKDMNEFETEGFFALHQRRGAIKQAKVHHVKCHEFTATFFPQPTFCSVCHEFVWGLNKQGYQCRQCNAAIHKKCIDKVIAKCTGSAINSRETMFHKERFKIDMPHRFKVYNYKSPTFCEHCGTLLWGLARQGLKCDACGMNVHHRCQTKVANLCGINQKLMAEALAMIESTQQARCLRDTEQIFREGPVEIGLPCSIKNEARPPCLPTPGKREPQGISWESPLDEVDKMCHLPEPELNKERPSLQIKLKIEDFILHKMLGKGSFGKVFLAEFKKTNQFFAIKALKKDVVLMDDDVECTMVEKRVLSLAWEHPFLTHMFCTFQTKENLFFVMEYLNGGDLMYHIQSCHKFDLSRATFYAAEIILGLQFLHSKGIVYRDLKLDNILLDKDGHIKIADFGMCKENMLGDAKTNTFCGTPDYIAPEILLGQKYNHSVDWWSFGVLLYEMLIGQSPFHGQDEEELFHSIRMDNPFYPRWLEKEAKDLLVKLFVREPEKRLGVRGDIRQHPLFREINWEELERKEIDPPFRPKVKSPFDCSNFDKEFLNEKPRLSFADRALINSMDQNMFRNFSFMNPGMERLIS

IC50 (PKC theta) | IC50 (PKC epsilon) | IC50 (Human primary T cells) | SMILES
4.56 nM | 271 nM | 208 nM | CN1C(C)(C)CC(Nc2nc(Nc3ccc(N4CCN(S(C)(=O)=O)CC4)c(Cl)c3)ncc2C(F)(F)F)CC1(C)C [Compound I-92]
2.59 nM | 208 nM | 344 nM | COc1ccc(Nc2ncc(C#N)c(NC3CC(C)(C)N(C)C(C)(C)C3)n2)cc1Cl [Compound I-93]
4.56 nM | 81.7 nM | 177 nM | CN1C(C)(C)CC(Nc2nc(Nc3ccc(-c4ccncc4)c(C(F)(F)F)c3)ncc2F)CC1(C)C [Compound I-96]
1.58 nM | 175 nM | 289 nM | CN1C(C)(C)CC(Nc2nc(Nc3cccc(C#N)c3)ncc2C#N)CC1(C)C [Compound I-97]
5.51 nM | 131 nM | 94.6 nM | CN1CCN(c2ccc(Nc3ncc(C#N)c(NC4CC(C)(C)N(C)C(C)(C)C4)n3)cc2Cl)CC1 [Compound I-101]
12.6 nM | 218 nM | 217 nM | CN1C(C)(C)CC(Nc2nc(Nc3ccc(N4CCN(S(C)(=O)=O)CC4)c(Cl)c3)ncc2C#N)CC1(C)C [Compound I-102]
50.4 nM | 413 nM | 129 nM | CN1C(C)(C)CC(Nc2nc(Nc3cc(Cl)cc(Cl)c3)ncc2F)CC1(C)C [Compound I-103]
15.8 nM | 62.8 nM | 79.8 nM | CN1C(C)(C)CC(Nc2nc(Nc3cccc(Br)c3)ncc2F)CC1(C)C [Compound I-104]
26 nM | 154 nM | 221 nM | CN1C(C)(C)CC(Nc2nc(Nc3cccc(-c4ccoc4)c3)ncc2F)CC1(C)C [Compound I-105]
8.91 nM | 25.6 nM | 73.3 nM | CN1C(C)(C)CC(Nc2nc(Nc3ccc(-c4cccnc4)c(C(F)(F)F)c3)ncc2F)CC1(C)C [Compound I-112]
18.2 nM | 10.3 nM | 237 nM | CN1C(C)(C)CC(Nc2nc(Nc3ccc(-c4cccnc4)c(F)c3)ncc2F)CC1(C)C [Compound I-118]
55.3 nM | 27.8 nM | 309 nM | CN1C(C)(C)CC(Nc2nc(Nc3ccc(-c4ccoc4)c(F)c3)ncc2F)CC1(C)C [Compound I-119]
23.7 nM | 15.8 nM | 268 nM | Cc1cc(Nc2ncc(F)c(NC3CC(C)(C)N(C)C(C)(C)C3)n2)ccc1-c1cccnc1 [Compound I-121]
60.7 nM | 18.7 nM | 295 nM | Cc1cc(Nc2ncc(F)c(NC3CC(C)(C)N(C)C(C)(C)C3)n2)ccc1-c1ccoc1 [Compound I-122]
4.19 nM | 26.8 nM | 214 nM | COc1cc(Nc2ncc(F)c(NC3CC(C)(C)N(C)C(C)(C)C3)n2)cc(OC)c1 [Compound I-129]
1.82 nM | 12.5 nM | 64.9 nM | CN1CCN(c2ccc(Nc3ncc(F)c(NC4CC(C)(C)N(C)C(C)(C)C4)n3)cc2C#N)CC1 [Compound I-132]
5.48 nM | 158 nM | 229 nM | CN1C(C)(C)CC(Nc2nc(Nc3ccc(F)c(C#N)c3)ncc2F)CC1(C)C [Compound I-140]
3.29 nM | 249 nM | 245 nM | CN1C(C)(C)CC(Nc2nc(Nc3ccc(C#N)c(C#N)c3)ncc2F)CC1(C)C [Compound I-141]
2.92 nM | 31 nM | 80.7 nM | Cc1ccc(Nc2ncc(F)c(NC3CC(C)(C)N(C)C(C)(C)C3)n2)cc1C#N [Compound I-142]
8.01 nM | 115 nM | 168 nM | COc1ccc(Nc2ncc(F)c(NC3CC(C)(C)N(C)C(C)(C)C3)n2)cc1C(F)(F)F [Compound I-147]
13.5 nM | 150 nM | 223 nM | CN1C(C)(C)CC(Nc2nc(Nc3ccc(-n4cccc4)c(C#N)c3)ncc2F)CC1(C)C [Compound I-148]
2.56 nM | 311 nM | 292 nM | CN1C(C)(C)CC(Nc2nc(Nc3ccc(Cl)c(C#N)c3)ncc2Cl)CC1(C)C [Compound I-165]

IC50 (PKC theta) | IC50 (PKC epsilon) | IC50 (Human primary T cells) | SMILES
329 nM | – | 539 nM | CN1C(C)(C)CC(Nc2nc(Nc3ccc(N4CCC(F)(F)CC4)c(C(F)(F)F)c3)ncc2F)CC1(C)C [Compound I-245]
13.7 nM | – | 136 nM | CCCN1CCN(c2ccc(Nc3ncc(F)c(NC4CC(C)(C)N(C)C(C)(C)C4)n3)cc2Cl)CC1 [Compound I-249]
1040 nM | – | 1500 nM | CC1CN(c2cc(Nc3ncc(F)c(NC4CC(C)(C)N(C)C(C)(C)C4)n3)ccc2Cl)CC(C)N1C (centres unmarked) [Compound I-250]
379 nM | – | 384 nM | CC(=O)N1C(C)CN(c2cc(Nc3ncc(F)c(NC4CC(C)(C)N(C)C(C)(C)C4)n3)ccc2Cl)CC1C (centres unmarked) [Compound I-251]
53.9 nM | – | 488 nM | COc1ccc(Nc2ncc(F)c(NC3CC(C)(C)NC(C)(C)C3)n2)cc1Cl [Compound I-254]
45.7 nM | – | 288 nM | CN1C(C)(C)CC(Nc2nc(Nc3ccc(-c4ccoc4)c(C(F)(F)F)c3)ncc2F)CC1(C)C [Compound I-328]
36 nM | – | 299 nM | Cc1ccc(Nc2ncc(F)c(NC3CC(C)(C)N(C)C(C)(C)C3)n2)cc1Cl [Compound I-332]
249 nM | – | 311 nM | CN1C(C)(C)CC(Nc2nc(Nc3ccc(C(F)(F)F)c(Cl)c3)ncc2F)CC1(C)C [Compound I-337]
31.8 nM | – | 188 nM | CN1C(C)(C)CC(Nc2nc(Nc3ccc(NC(=O)c4ccco4)c(Cl)c3)ncc2F)CC1(C)C [Compound I-339]
698 nM | 941 nM | – | CN1C(C)(C)CC(Nc2nc(Nc3cccc(-c4nn[nH]n4)c3)ncc2F)CC1(C)C [Compound I-470]
– | 982 nM | – | CC1(C)CC(Nc2nc(Nc3cccc(-c4nn[nH]n4)c3)ncc2F)CC(C)(C)N1 [Compound I-471]
37.8 nM | – | 561 nM | CCN1C(=O)CCc2cc(Nc3ncc(F)c(NC4CC(C)(C)N(C)C(C)(C)C4)n3)ccc21 [II-5]
6.06 nM | – | 244 nM | CN1C(=O)COc2cc(Nc3ncc(F)c(NC4CC(C)(C)N(C)C(C)(C)C4)n3)ccc21 [II-6]
53.2 nM | – | 476 nM | Cc1ccc2cc(Nc3ncc(F)c(NC4CC(C)(C)N(C)C(C)(C)C4)n3)ccc2n1 [II-7]
2.5 nM | – | 500 nM | CC1(C)CC(Nc2nc(Nc3ccc4c(c3)oc(=O)n4CC3CC3)ncc2C#N)CC(C)(C)N1 [II-97]
10.1 nM | – | 720 nM | CCN1C(=O)C(C)(C)Oc2cc(Nc3ncc(OC)c(NC4CC(C)(C)N(C)C(C)(C)C4)n3)ccc21 [II-130]
130 nM | – | 1060 nM | CN1CCC(Nc2nc(Nc3cccc(C#N)c3)ncc2F)CC1 [III-2, N2-(3-Cyano)phenyl-5-fluoro-N4-(1-methylpiperidin-4-yl)-2,4-pyrimidinediamine]
18 nM | – | 619 nM | CN1CCC(Nc2nc(Nc3ccc(N4CCN(C)CC4)c(C(F)(F)F)c3)ncc2F)CC1 [III-3, 5-Fluoro-N2-[4-(4-methylpiperazino)-3-trifluoromethyl]phenyl-N4-(1-methylpiperidin-4-yl)-2,4-pyrimidinediamine]
32.4 nM | – | 1680 nM | CN1CCC(Nc2nc(Nc3ccc(N4CCN(C)CC4)c(Cl)c3)ncc2F)CC1 [III-4, N2-[3-Chloro-4-(4-methylpiperazino)]phenyl-5-fluoro-N4-(1-methylpiperidin-4-yl)-2,4-pyrimidinediamine]
255 nM | – | 1560 nM | N#Cc1cccc(Nc2ncc(F)c(NC3CCN(CCO)CC3)n2)c1 [III-6, N2-(3-Cyano)phenyl-5-fluoro-N4-[1-(2-hydroxyethyl)piperidin-4-yl]-2,4-pyrimidinediamine]
254 nM | – | 1140 nM | CN1CCN(c2ccc(Nc3ncc(F)c(NC4CCN(CCO)CC4)n3)cc2C(F)(F)F)CC1 [III-7, 5-Fluoro-N4-[1-(2-hydroxyethyl)piperidin-4-yl]-N2-[4-(4-methylpiperazino)-3-trifluoromethyl]phenyl-2,4-pyrimidinediamine]

— patent US8993585B2, “Cyclic amine substituted pyrimidinediamines as PKC inhibitors” (Rigel Pharmaceuticals, Inc., priority 2007, dated 2015)
